According to ChEMBL document CHEMBL5344426, “Imidazolone as an Amide Bioisostere in the Development of β-1,3-N-Acetylglucosaminyltransferase 2 (B3GNT2) Inhibitors” (J Med Chem, 2023):
pIC50: −log10 of the molar value.

Legend:
Jurkat = test: Antiproliferative activity against human Jurkat cells assessed as inhibition of cell growth incubated for 3 days by SYTOX blue staining based flow cytometry analysis; type: functional; details: 72 h
[1] = target: T1, N-acetyllactosaminide beta-1,3-N-acetylglucosaminyltransferase 2 (Homo sapiens, UniProt Q9NY97); test: Inhibition of B3GNT2 (unknown origin) using N-acetyl-lactosamine and UDP-GlcNAc as substrate incubated for 1.5 to 2 hrs by UDP-Glo based analysis; details: for pIC50: read-out: IC50
T1 sequence (Q9NY97 whole entry): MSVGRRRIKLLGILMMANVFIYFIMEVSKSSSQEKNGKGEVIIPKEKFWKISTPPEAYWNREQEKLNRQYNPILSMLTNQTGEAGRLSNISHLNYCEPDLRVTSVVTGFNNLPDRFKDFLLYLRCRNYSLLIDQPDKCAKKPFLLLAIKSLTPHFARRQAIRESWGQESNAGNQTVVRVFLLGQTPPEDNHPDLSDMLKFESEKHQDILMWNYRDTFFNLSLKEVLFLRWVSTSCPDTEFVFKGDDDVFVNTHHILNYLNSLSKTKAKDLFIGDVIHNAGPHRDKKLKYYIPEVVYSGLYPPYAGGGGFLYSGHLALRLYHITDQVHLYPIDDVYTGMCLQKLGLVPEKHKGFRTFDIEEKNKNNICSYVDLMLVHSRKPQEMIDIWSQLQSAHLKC

[2] = target: N-acetyllactosaminide beta-1,3-N-acetylglucosaminyltransferase 4 (Homo sapiens, UniProt Q9C0J1); test: Inhibition of B3GNT4 (unknown origin) using Beta-lactose and UDP-GlcNAc as substrate incubated for 1.5 to 2 hrs by UDP-Glo based analysis
N-acetyllactosaminide beta-1,3-N-acetylglucosaminyltransferase 4, sequence (Q9C0J1 whole entry): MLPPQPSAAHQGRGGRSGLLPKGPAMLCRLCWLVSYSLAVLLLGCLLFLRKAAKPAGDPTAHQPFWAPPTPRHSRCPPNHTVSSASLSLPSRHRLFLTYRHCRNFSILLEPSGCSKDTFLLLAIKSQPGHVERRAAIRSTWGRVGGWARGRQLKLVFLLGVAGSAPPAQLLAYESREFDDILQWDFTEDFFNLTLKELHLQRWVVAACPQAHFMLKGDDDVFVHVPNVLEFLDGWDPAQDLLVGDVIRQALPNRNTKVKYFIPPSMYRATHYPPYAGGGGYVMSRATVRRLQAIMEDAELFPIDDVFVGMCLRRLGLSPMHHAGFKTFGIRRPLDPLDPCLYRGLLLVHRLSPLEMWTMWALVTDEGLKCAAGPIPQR

C[C@@H](n1c(=O)[nH]c2ccc(C3=NC(=O)[C@](C)(c4ncc(Cl)cn4)N3)cc21)C(C)(C)C
pIC50 (Jurkat): 4.79
pIC50 [1]: 7.09

C[C@H](NC(=O)c1ccc2[nH]c(=O)n([C@H](C)C(C)(C)C)c2c1)c1ncc(Cl)cn1
pIC50 (Jurkat): 4.53
pIC50 [2]: < 3.60
pIC50 [1]: 6.37

C[C@H](NC(=O)c1ccc2[nH]c(=O)n([C@H](C)C(C)(C)C)c2c1)c1ccc(Cl)cc1
pIC50 (Jurkat): 4.33
pIC50 [2]: < 3.60
pIC50 [1]: 6.54

CC(C)Cn1c(=O)[nH]c2ccc(C(=O)O)cc21
pIC50 [2]: < 3.60
pIC50 [1]: 5.04

C[C@@H](n1c(=O)[nH]c2ccc(C3=NC(=O)[C@](C)(c4ccccc4)N3)cc21)C(C)(C)C
pIC50 (Jurkat): < 4.07
pIC50 [2]: < 3.60
pIC50 [1]: 6.22

C[C@@H](n1c(=O)[nH]c2ccc(C3=NC(c4ccc(Cl)cn4)(c4ccc(Cl)cn4)NC3=O)cc21)C(C)(C)C
pIC50 (Jurkat): 4.43
pIC50 [1]: 6.70

C[C@@H](n1c(=O)[nH]c2ccc(C3=NOC(C)(c4ccccc4)N3)cc21)C(C)(C)C (some centres not stated)
pIC50 (Jurkat): 4.55
pIC50 [1]: 6.05

C[C@@H](n1c(=O)[nH]c2ccc(C(=O)O)cc21)C(C)(C)C
pIC50 (Jurkat): < 4.07
pIC50 [2]: 3.91
pIC50 [1]: 6.59

C[C@@H](n1c(=O)[nH]c2ccc(C(=O)NC(C)(C)c3ccc(Cl)cc3)cc21)C(C)(C)C
pIC50 [2]: < 3.60
pIC50 [1]: 6.08

Cc1[nH]c2ccc([C@]3(C)N=C(c4ccc5[nH]c(=O)n([C@H](C)C(C)(C)C)c5c4)C(=O)N3)cc2c1C
pIC50 [1]: 6.00

C[C@@H](n1c(=O)[nH]c2ccc(C3=NC(=O)[C@](C)(c4ccc(C(F)(F)F)cn4)N3)cc21)C(C)(C)C
pIC50 (Jurkat): 4.62
pIC50 [1]: 7.52

C[C@@H](n1c(=O)[nH]c2ccc(C3=N[C@@](C)(c4ccc(Cl)cn4)NC3=O)cc21)C(C)(C)C
pIC50 (Jurkat): 5.09
pIC50 [1]: 7.16

C[C@@H](NC(=O)c1ccc2[nH]c(=O)n([C@H](C)C(C)(C)C)c2c1)c1ccc(Cl)cc1
pIC50 [2]: < 3.60
pIC50 [1]: 5.57

CC(C)NC(=O)c1ccc2[nH]c(=O)n([C@H](C)C(C)(C)C)c2c1
pIC50 [2]: < 3.60
pIC50 [1]: 5.54

C[C@@H](n1c(=O)[nH]c2ccc(C3=N[C@@](C)(c4cc5ccccc5[nH]4)NC3=O)cc21)C(C)(C)C
pIC50 (Jurkat): 5.00
pIC50 [1]: 7.26

C[C@H](NC(=O)c1ccc2[nH]c(=O)n([C@H](C)C(C)(C)C)c2c1)c1cnc(Cl)cn1
pIC50 (Jurkat): 4.63
pIC50 [2]: < 3.60
pIC50 [1]: 6.05

C[C@@H](n1c(=O)[nH]c2ccc(C3=N[C@@](C)(c4ccc5nccn5c4)NC3=O)cc21)C(C)(C)C
pIC50 (Jurkat): 4.42
pIC50 [1]: 6.43

Cc1ccc([C@H](C)NC(=O)c2ccc3[nH]c(=O)n([C@H](C)C(C)(C)C)c3c2)nc1
pIC50 (Jurkat): 5.06
pIC50 [2]: < 3.60
pIC50 [1]: 7.03

Cc1[nH]c2cc(NC(=O)c3ccc4[nH]c(=O)n([C@H](C)C(C)(C)C)c4c3)ccc2c1C
pIC50 (Jurkat): 5.44
pIC50 [2]: 3.78
pIC50 [1]: 7.22

C[C@@H](n1c(=O)[nH]c2ccc(C3=NC(=O)[C@](C)(c4ccc(Cl)cn4)N3)cc21)C(C)(C)C
pIC50 (Jurkat): 5.09
pIC50 [1]: 7.18

C[C@@H](n1c(=O)[nH]c2ccc(C3=NC(C)(c4cnc(C(F)(F)F)nc4)C(=O)O3)cc21)C(C)(C)C (some centres not stated)
IC50 [1]: Not Active
